Laboratory results: the NIST ThermoML archive (doi:10.1016/j.jct.2011.11.025)
± gives the expanded uncertainty stated by the source.

Columns and labels:
[1] = activity coefficient (dimensionless); of the first substance listed, at infinite dilution; xn = mol fraction of the nth substance listed; conditions: Liquid, Chromatography, x1 = 0
[2] = 101.33 kPa, Liquid, Vibrating tube method

Cc1ccccc1C [1,2-dimethylbenzene] + CCCCCCn1cc[n+](C)c1.N#C[B-](C#N)(C#N)C#N
activity coefficient ([1]; 318.15 K): 1.19 ± 0.04 | activity coefficient ([1]; 328.15 K): 1.22 ± 0.04 | activity coefficient ([1]; 338.15 K): 1.24 ± 0.04 | activity coefficient ([1]; 348.15 K): 1.26 ± 0.04 | activity coefficient ([1]; 358.15 K): 1.28 ± 0.04 | activity coefficient ([1]; 368.15 K): 1.31 ± 0.05

C1CCOC1 [tetrahydrofuran] + CCCCCCn1cc[n+](C)c1.N#C[B-](C#N)(C#N)C#N
activity coefficient ([1]; 318.15 K): 0.453 ± 0.033 | activity coefficient ([1]; 328.15 K): 0.47 ± 0.033 | activity coefficient ([1]; 338.15 K): 0.485 ± 0.033 | activity coefficient ([1]; 348.15 K): 0.501 ± 0.032 | activity coefficient ([1]; 358.15 K): 0.513 ± 0.032 | activity coefficient ([1]; 368.15 K): 0.527 ± 0.032

CCCC=O [butanal] + CCCCCCn1cc[n+](C)c1.N#C[B-](C#N)(C#N)C#N
activity coefficient ([1]; 318.15 K): 0.512 ± 0.032 | activity coefficient ([1]; 328.15 K): 0.523 ± 0.032 | activity coefficient ([1]; 338.15 K): 0.539 ± 0.032 | activity coefficient ([1]; 348.15 K): 0.554 ± 0.032 | activity coefficient ([1]; 358.15 K): 0.564 ± 0.032 | activity coefficient ([1]; 368.15 K): 0.579 ± 0.031

Cc1ccc(C)cc1 [1,4-dimethylbenzene] + CCCCCCn1cc[n+](C)c1.N#C[B-](C#N)(C#N)C#N
activity coefficient ([1]; 318.15 K): 1.33 ± 0.05 | activity coefficient ([1]; 328.15 K): 1.36 ± 0.05 | activity coefficient ([1]; 338.15 K): 1.39 ± 0.05 | activity coefficient ([1]; 348.15 K): 1.42 ± 0.05 | activity coefficient ([1]; 358.15 K): 1.44 ± 0.05 | activity coefficient ([1]; 368.15 K): 1.47 ± 0.06

CCCCC [pentane] + CCCCCCn1cc[n+](C)c1.N#C[B-](C#N)(C#N)C#N
activity coefficient ([1]; 318.15 K): 8.63 ± 0.4 | activity coefficient ([1]; 328.15 K): 8.22 ± 0.38 | activity coefficient ([1]; 338.15 K): 7.85 ± 0.36 | activity coefficient ([1]; 348.15 K): 7.61 ± 0.35 | activity coefficient ([1]; 358.15 K): 7.33 ± 0.34 | activity coefficient ([1]; 368.15 K): 7.13 ± 0.33

CCCO [propan-1-ol] + CCCCCCn1cc[n+](C)c1.N#C[B-](C#N)(C#N)C#N
activity coefficient ([1]; 318.15 K): 1.19 ± 0.04 | activity coefficient ([1]; 328.15 K): 1.1 ± 0.03 | activity coefficient ([1]; 338.15 K): 1.02 ± 0.03 | activity coefficient ([1]; 348.15 K): 0.965 ± 0.026 | activity coefficient ([1]; 358.15 K): 0.913 ± 0.026 | activity coefficient ([1]; 368.15 K): 0.864 ± 0.027

CC#N [acetonitrile] + CCCCCCn1cc[n+](C)c1.N#C[B-](C#N)(C#N)C#N
activity coefficient ([1]; 318.15 K): 0.387 ± 0.034 | activity coefficient ([1]; 328.15 K): 0.391 ± 0.034 | activity coefficient ([1]; 338.15 K): 0.394 ± 0.034 | activity coefficient ([1]; 348.15 K): 0.396 ± 0.034 | activity coefficient ([1]; 358.15 K): 0.398 ± 0.034 | activity coefficient ([1]; 368.15 K): 0.4 ± 0.034

CC(C)(C)O [2-methylpropan-2-ol] + CCCCCCn1cc[n+](C)c1.N#C[B-](C#N)(C#N)C#N
activity coefficient ([1]; 318.15 K): 1.2 ± 0.04 | activity coefficient ([1]; 328.15 K): 1.11 ± 0.03 | activity coefficient ([1]; 338.15 K): 1.04 ± 0.03 | activity coefficient ([1]; 348.15 K): 0.988 ± 0.025 | activity coefficient ([1]; 358.15 K): 0.951 ± 0.026 | activity coefficient ([1]; 368.15 K): 0.914 ± 0.026

CCO [ethanol] + CCCCCCn1cc[n+](C)c1.N#C[B-](C#N)(C#N)C#N
activity coefficient ([1]; 318.15 K): 1.05 ± 0.03 | activity coefficient ([1]; 328.15 K): 0.978 ± 0.025 | activity coefficient ([1]; 338.15 K): 0.912 ± 0.026 | activity coefficient ([1]; 348.15 K): 0.855 ± 0.027 | activity coefficient ([1]; 358.15 K): 0.807 ± 0.028 | activity coefficient ([1]; 368.15 K): 0.761 ± 0.029

CC(=O)O [acetic acid] + CCCCCCn1cc[n+](C)c1.N#C[B-](C#N)(C#N)C#N
activity coefficient ([1]; 328.15 K): 0.285 ± 0.036 | activity coefficient ([1]; 338.15 K): 0.298 ± 0.036 | activity coefficient ([1]; 348.15 K): 0.311 ± 0.035 | activity coefficient ([1]; 358.15 K): 0.323 ± 0.035 | activity coefficient ([1]; 368.15 K): 0.335 ± 0.035

CCC[N+](=O)[O-] [1-nitropropane] + CCCCCCn1cc[n+](C)c1.N#C[B-](C#N)(C#N)C#N
activity coefficient ([1]; 328.15 K): 0.497 ± 0.033 | activity coefficient ([1]; 338.15 K): 0.503 ± 0.032 | activity coefficient ([1]; 348.15 K): 0.508 ± 0.032 | activity coefficient ([1]; 358.15 K): 0.511 ± 0.032 | activity coefficient ([1]; 368.15 K): 0.518 ± 0.032

O [water] + CCCCCCn1cc[n+](C)c1.N#C[B-](C#N)(C#N)C#N
activity coefficient ([1]; 318.15 K): 2.05 ± 0.09 | activity coefficient ([1]; 328.15 K): 1.87 ± 0.08 | activity coefficient ([1]; 338.15 K): 1.7 ± 0.07 | activity coefficient ([1]; 348.15 K): 1.55 ± 0.06 | activity coefficient ([1]; 358.15 K): 1.42 ± 0.05 | activity coefficient ([1]; 368.15 K): 1.33 ± 0.05

CO [methanol] + CCCCCCn1cc[n+](C)c1.N#C[B-](C#N)(C#N)C#N
activity coefficient ([1]; 318.15 K): 0.837 ± 0.027 | activity coefficient ([1]; 328.15 K): 0.786 ± 0.028 | activity coefficient ([1]; 338.15 K): 0.745 ± 0.029 | activity coefficient ([1]; 348.15 K): 0.704 ± 0.029 | activity coefficient ([1]; 358.15 K): 0.668 ± 0.03 | activity coefficient ([1]; 368.15 K): 0.633 ± 0.031

CC(C)O [propan-2-ol] + CCCCCCn1cc[n+](C)c1.N#C[B-](C#N)(C#N)C#N
activity coefficient ([1]; 318.15 K): 1.2 ± 0.04 | activity coefficient ([1]; 328.15 K): 1.11 ± 0.03 | activity coefficient ([1]; 338.15 K): 1.03 ± 0.03 | activity coefficient ([1]; 348.15 K): 0.961 ± 0.026 | activity coefficient ([1]; 358.15 K): 0.902 ± 0.026 | activity coefficient ([1]; 368.15 K): 0.852 ± 0.027

CCc1ccccc1 [ethylbenzene] + CCCCCCn1cc[n+](C)c1.N#C[B-](C#N)(C#N)C#N
activity coefficient ([1]; 318.15 K): 1.39 ± 0.05 | activity coefficient ([1]; 328.15 K): 1.41 ± 0.05 | activity coefficient ([1]; 338.15 K): 1.43 ± 0.05 | activity coefficient ([1]; 348.15 K): 1.45 ± 0.05 | activity coefficient ([1]; 358.15 K): 1.47 ± 0.06 | activity coefficient ([1]; 368.15 K): 1.49 ± 0.06

COC(C)=O [methyl ethanoate] + CCCCCCn1cc[n+](C)c1.N#C[B-](C#N)(C#N)C#N
activity coefficient ([1]; 318.15 K): 0.508 ± 0.032 | activity coefficient ([1]; 328.15 K): 0.521 ± 0.032 | activity coefficient ([1]; 338.15 K): 0.538 ± 0.032 | activity coefficient ([1]; 348.15 K): 0.55 ± 0.032 | activity coefficient ([1]; 358.15 K): 0.566 ± 0.032 | activity coefficient ([1]; 368.15 K): 0.586 ± 0.031

COC(C)(C)C [2-methoxy-2-methylpropane] + CCCCCCn1cc[n+](C)c1.N#C[B-](C#N)(C#N)C#N
activity coefficient ([1]; 318.15 K): 1.62 ± 0.07 | activity coefficient ([1]; 328.15 K): 1.66 ± 0.07 | activity coefficient ([1]; 338.15 K): 1.71 ± 0.07 | activity coefficient ([1]; 348.15 K): 1.76 ± 0.07 | activity coefficient ([1]; 358.15 K): 1.81 ± 0.08 | activity coefficient ([1]; 368.15 K): 1.87 ± 0.08

CCOC(C)=O [ethyl acetate] + CCCCCCn1cc[n+](C)c1.N#C[B-](C#N)(C#N)C#N
activity coefficient ([1]; 318.15 K): 0.664 ± 0.03 | activity coefficient ([1]; 328.15 K): 0.684 ± 0.03 | activity coefficient ([1]; 338.15 K): 0.701 ± 0.029 | activity coefficient ([1]; 348.15 K): 0.715 ± 0.029 | activity coefficient ([1]; 358.15 K): 0.733 ± 0.029 | activity coefficient ([1]; 368.15 K): 0.751 ± 0.029

CCCCO [butan-1-ol] + CCCCCCn1cc[n+](C)c1.N#C[B-](C#N)(C#N)C#N
activity coefficient ([1]; 318.15 K): 1.43 ± 0.05 | activity coefficient ([1]; 328.15 K): 1.32 ± 0.05 | activity coefficient ([1]; 338.15 K): 1.22 ± 0.04 | activity coefficient ([1]; 348.15 K): 1.14 ± 0.03 | activity coefficient ([1]; 358.15 K): 1.07 ± 0.03 | activity coefficient ([1]; 368.15 K): 1.01 ± 0.03

CCCCCCn1cc[n+](C)c1.N#C[B-](C#N)(C#N)C#N [1-hexyl-3-methylimidazolium tetracyanoborate]
mass density ([2]; 318.15 K): 976.11 ± 0.23 kg/m3 | mass density ([2]; 328.15 K): 969.06 ± 0.23 kg/m3 | mass density ([2]; 338.15 K): 962.08 ± 0.23 kg/m3 | mass density ([2]; 348.15 K): 955.16 ± 0.23 kg/m3 | mass density ([2]; 358.15 K): 948.32 ± 0.23 kg/m3 | mass density ([2]; 368.15 K): 941.2 ± 0.23 kg/m3

CCOC(C)(C)C [2-ethoxy-2-methylpropane] + CCCCCCn1cc[n+](C)c1.N#C[B-](C#N)(C#N)C#N
activity coefficient ([1]; 318.15 K): 3.51 ± 0.16 | activity coefficient ([1]; 328.15 K): 3.53 ± 0.16 | activity coefficient ([1]; 338.15 K): 3.53 ± 0.16 | activity coefficient ([1]; 348.15 K): 3.58 ± 0.16 | activity coefficient ([1]; 358.15 K): 3.61 ± 0.16 | activity coefficient ([1]; 368.15 K): 3.66 ± 0.17

c1ccccc1 [benzene] + CCCCCCn1cc[n+](C)c1.N#C[B-](C#N)(C#N)C#N
activity coefficient ([1]; 318.15 K): 0.733 ± 0.029 | activity coefficient ([1]; 328.15 K): 0.743 ± 0.029 | activity coefficient ([1]; 338.15 K): 0.758 ± 0.029 | activity coefficient ([1]; 348.15 K): 0.773 ± 0.028 | activity coefficient ([1]; 358.15 K): 0.783 ± 0.028 | activity coefficient ([1]; 368.15 K): 0.8 ± 0.028

C=C(C)c1ccccc1 [(1-methylethenyl)benzene] + CCCCCCn1cc[n+](C)c1.N#C[B-](C#N)(C#N)C#N
activity coefficient ([1]; 328.15 K): 1.2 ± 0.04 | activity coefficient ([1]; 338.15 K): 1.26 ± 0.04 | activity coefficient ([1]; 348.15 K): 1.3 ± 0.04 | activity coefficient ([1]; 358.15 K): 1.34 ± 0.05 | activity coefficient ([1]; 368.15 K): 1.38 ± 0.05

CC(C)OC(C)C [diisopropyl ether] + CCCCCCn1cc[n+](C)c1.N#C[B-](C#N)(C#N)C#N
activity coefficient ([1]; 318.15 K): 3.68 ± 0.17 | activity coefficient ([1]; 328.15 K): 3.71 ± 0.17 | activity coefficient ([1]; 338.15 K): 3.75 ± 0.17 | activity coefficient ([1]; 348.15 K): 3.8 ± 0.17 | activity coefficient ([1]; 358.15 K): 3.82 ± 0.17 | activity coefficient ([1]; 368.15 K): 3.87 ± 0.18

C=CCCCC [hex-1-ene] + CCCCCCn1cc[n+](C)c1.N#C[B-](C#N)(C#N)C#N
activity coefficient ([1]; 318.15 K): 6.13 ± 0.28 | activity coefficient ([1]; 328.15 K): 5.88 ± 0.27 | activity coefficient ([1]; 338.15 K): 5.71 ± 0.26 | activity coefficient ([1]; 348.15 K): 5.58 ± 0.26 | activity coefficient ([1]; 358.15 K): 5.44 ± 0.25 | activity coefficient ([1]; 368.15 K): 5.35 ± 0.24

CCCCCCCC [octane] + CCCCCCn1cc[n+](C)c1.N#C[B-](C#N)(C#N)C#N
activity coefficient ([1]; 318.15 K): 22.8 ± 1.1 | activity coefficient ([1]; 328.15 K): 21.1 ± 1 | activity coefficient ([1]; 338.15 K): 19.7 ± 0.9 | activity coefficient ([1]; 348.15 K): 18.6 ± 0.9 | activity coefficient ([1]; 358.15 K): 17.4 ± 0.8 | activity coefficient ([1]; 368.15 K): 16.6 ± 0.8
